Publication PMC12153265 (mBio, 2025)

Tests used:
SARS-CoV-2 [1] = assay: SARS-CoV-2 replication in Caco-2 cells, viral titer in the medium by plaque assay; assay type: cell-based; conditions: for reduction of viral yield: MOI = 0.1, 72 h; for reduction of viral yield / antiviral activity in SARS-CoV-2 infection compared with compound 1: plaque assay; for IC50 / antiviral activity in SARS-CoV-2 infection compared with compound 1: Caco-2, MOI = 0.1, 72 h; for IC50: viral titer in medium by plaque assay, read-out: IC50, inhibition of SARS-CoV-2 replication
Experimental: (§1) NHBE (1.5 × 10^5 cells), Calu-3 (5 × 10^5 cells), or Caco-2 cells (2 × 10^5 cells) were seeded in one well of 12-well plates. Cells were washed with FBS-free medium before viral infection. SARS-CoV-2 was diluted in 250 µL (per well) medium and added to the above cells. Viral infection was incubated on a rocker for 45 min at 37°C. Cells were washed with fresh medium, and medium containing 10% FBS was added.
(§2) Vero E6-hACE2 cells were seeded in 6- or 12-well plates. When cell confluence reached 100%, cells were washed with FBS-free medium and infected with medium containing serially diluted SARS-CoV-2. After infection, the medium was removed, and overlay medium containing FBS-free 1× DMEM and 1% low-melting point agarose was added. At 72 h post-infection, cells were fixed with 4% paraformaldehyde (PFA) overnight and stained with 0.2% crystal violet. Plaques were counted on a lightbox.
(§3) Caco-2, NHBE, Calu-3, and Vero E6-hACE2 cells were pre-treated with compound 1, 6, or 10 and infected with SARS-CoV-2 (MOI = 0.1 for Caco-2, NHBE, and Calu-3; MOI = 0.001 for Vero E6-hACE2). Compounds were added daily during viral infection until the end of the experiments (72 h for Caco-2 and Calu-3, 48 h for NHBE, and 24 h for Vero E6-hACE2), with DMSO used as a control. Viral titer in the medium was determined by plaque assay. Cytotoxicity assay was performed for uninfected Caco-2, NHBE, Calu-3, and Vero E6-hACE2 cells with the same treatment schedule as that of viral replication assay. Cytotoxicity was determined with an XTT assay kit (Roche), according to the manufacturer’s instructions. The percentage of inhibition was normalized to DMSO control. IC50, IC90, and CC50 were calculated with GraphPad Prism software.

[2] = Cytotoxicity, XTT assay, uninfected Caco-2 cells; assay type: cell-based, human; conditions: human, uninfected Caco-2 cells, uninfected Caco-2, XTT assay, read-out: CC50, cell viability
Experimental: as §3

SARS-CoV-2 [3] = assay: SARS-CoV-2 replication in NHBE cells, viral titer in the medium by plaque assay; assay type: cell-based; conditions: Severe acute respiratory syndrome coronavirus 2, NHBE, 48 h
Experimental: as §1, §2
Caco-2, NHBE, Calu-3, and Vero E6-hACE2 cells were pre-treated with compound 1, 6, or 10 and infected with SARS-CoV-2 (MOI = 0.1 for Caco-2, NHBE, and Calu-3; MOI = 0.001 for Vero E6-hACE2). […] Viral titer in the medium was determined by plaque assay. […] Cytotoxicity was determined with an XTT assay kit (Roche), according to the manufacturer’s instructions. […] IC50, IC90, and CC50 were calculated with GraphPad Prism software.

[4] = Cytotoxicity, XTT assay, uninfected NHBE cells; assay type: cell-based; conditions: human, read-out: CC50, cell viability
Experimental: as §3

CTPS1 [5] = biological target: CTPS1 (Homo sapiens, UniProt P17812); assay: CTPS1 enzymatic activity assay (UTP to CTP conversion, mass spectrometry); assay type: biochemical; conditions: read-out: inhibition of CTP synthesis compared with DMSO
SARS-CoV-2 [6] = assay: SARS-CoV-2 RNA abundance in infected Caco-2 cells, real-time PCR; assay type: cell-based; conditions: MOI = 0.1, 72 h
SARS-CoV-2 [7] = assay: SARS-CoV-2 replication (plaque assay) and cytotoxicity (XTT) in Calu-3 cells; assay type: cell-based; conditions: Calu-3, MOI = 0.1, 72 h
Experimental: as §3

IFN-β promoter = assay: IFN-β induction by Sendai virus, luciferase reporter assay in 293T cells; assay type: cell-based, human; conditions: SeV infection; for IFN induction compared with compound 1, reporter assay: 293T cells
Experimental: (§4) HEK293T cells in 24-well plates (~50% cell density) were transfected with a reporter plasmid cocktail containing 50 ng luciferase reporter plasmid (ISRE-luc, IFN-β-luc, or NF-κB), 5 ng TK-renilla luciferase reporter (control vector), and the indicated expression plasmids by calcium phosphate precipitation. Whole cell lysates (WCLs) were prepared at 24–30 h post-transfection and used for dual luciferase assay according to the manufacturer’s instruction (Promega).

NF-κB = NF-κB activation by Sendai virus, luciferase reporter assay in 293T cells; assay type: cell-based, human; conditions: SeV infection
Experimental: as §4

IFNB1, ISG56, CCL5, Mx1 = assay: Antiviral gene expression in SARS-CoV-2-infected Caco-2 cells, real-time PCR; assay type: cell-based, human; conditions: Caco-2, 2 µM and 6 µM, MOI = 0.1, 48 h
IFNB1 = assay: Antiviral gene expression in 293T cells infected with Sendai virus, real-time PCR
CTP synthesis = assay: Intracellular CTP/CDP synthesis, [amide-15N]glutamine tracing and mass spectrometry
CTPS1 [8] = biological target: T1, CTPS1 (Homo sapiens, UniProt P17812); assay: Covalent labeling of FLAG-CTPS1 in 293T cells, in-gel fluorescence imaging; assay type: binding; conditions: FLAG-CTPS1 expressing 293T cells, 2 h
T1 construct: expressed in transfected cells; host or cells: 293T cells expressing FLAG-CTPS1
T1 sequence (P17812 1-591): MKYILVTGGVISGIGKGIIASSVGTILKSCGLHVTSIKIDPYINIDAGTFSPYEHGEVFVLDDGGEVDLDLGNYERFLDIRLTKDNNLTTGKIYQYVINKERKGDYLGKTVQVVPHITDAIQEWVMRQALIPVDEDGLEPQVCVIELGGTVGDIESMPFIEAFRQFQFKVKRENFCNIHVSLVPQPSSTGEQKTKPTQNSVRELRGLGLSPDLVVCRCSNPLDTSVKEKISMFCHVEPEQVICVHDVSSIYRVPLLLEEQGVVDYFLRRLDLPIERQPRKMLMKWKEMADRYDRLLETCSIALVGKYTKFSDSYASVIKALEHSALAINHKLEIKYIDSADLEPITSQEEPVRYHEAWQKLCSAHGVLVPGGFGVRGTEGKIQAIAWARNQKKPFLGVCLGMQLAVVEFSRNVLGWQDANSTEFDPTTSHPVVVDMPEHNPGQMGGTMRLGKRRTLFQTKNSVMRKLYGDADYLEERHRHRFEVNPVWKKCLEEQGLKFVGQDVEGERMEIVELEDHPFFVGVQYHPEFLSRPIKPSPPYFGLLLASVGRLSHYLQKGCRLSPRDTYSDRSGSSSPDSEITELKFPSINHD

Caco-2 cells = assay: Cytotoxicity, XTT assay, uninfected Caco-2 cells; assay type: cell-based, human; conditions: uninfected Caco-2, XTT assay, 72 h; read-out: CC50, cell viability
Experimental: as §3

SARS-CoV-2 [9] = assay: SARS-CoV-2 infection of K18-hACE2 transgenic mice; assay type: in vivo, mouse; conditions: 50 mg/kg daily intraperitoneal, 3 dpi
Experimental: K18-hACE2 transgenic mice were intraperitoneally administered with compound 10 at a dose of 50 mg/kg and vehicle 1 day before infection with 1 × 10^4 PFU of SARS-CoV-2. Body weight and compound administration were monitored daily. Mice were humanely euthanized at 3 dpi, and the lung tissues were harvested for viral titration, real-time PCR, and pathological analysis.
K18-ACE2 transgenic mice were euthanized on day 3 after SARS-CoV-2 infection. Fresh lung pieces were fixed with 10% formalin for 24 h. The post-caval lobes of the […] were sent to the histology lab in USC of the School of Pharmacy Core Facilities for processing and hematoxylin and eosin (H&E) staining. In brief, tissues were dehydrated and embedded in paraffin. Paraffin-embedded tissue blocks were sectioned with 5 µm thickness. Sections were processed by H&E staining and imaged by ZEISS Axio Scope.A1 microscope (Zeiss) and analyzed by ZEISS ZEN Blue software.
Immunofluorescence staining was performed on the middle lobes of the […] fixed with 10% formalin. Tissues were embedded in optimal cutting temperature (OCT) compound and frozen immediately at −80°C. Subsequently, the frozen tissues were cut into 8 µm sections using a cryostat-microtome. Sections were blocked with 10% normal goat serum diluted in PBST for 1 h and incubated with primary antibodies diluted in 10% normal goat serum overnight at 4°C. After washing with PBST, sections were incubated with species-matched secondary antibodies for 30 min at room temperature. Then tissue sections were washed with PBST, mounted with VectaMount Mounting Medium (Vector Laboratories), and analyzed by a confocal microscope (Nikon).

SARS-CoV-2 [10] = assay: SARS-CoV-2 infection of AAV-hACE2-transduced C57BL/6 J mice; conditions: 35 mg/kg daily intraperitoneal, 4 dpi

COc1cccc(NC(=O)c2cccc(NC(=O)CCl)c2)c1 [Compound 1]
reduction of viral yield (SARS-CoV-2 [1]; Caco-2, 2 µM): ~ 10 fold | reduction of viral yield (SARS-CoV-2 [1]; Caco-2, 6 µM): ~50 fold | IC90 (SARS-CoV-2 [1]; Severe acute respiratory syndrome coronavirus 2, Caco-2, 72 h, read-out: IC90, inhibition of SARS-CoV-2 replication): 1560 nM | IC50 (SARS-CoV-2 [1]; Severe acute respiratory syndrome coronavirus 2): 170 nM | CC50 at 72 h [2]: 2420 nM | IC50 (SARS-CoV-2 [3]; read-out: IC50, inhibition of SARS-CoV-2 replication): 970 nM | IC90 (SARS-CoV-2 [3]; read-out: IC90, inhibition of SARS-CoV-2 replication): 8700 nM | CC50 at 48 h [4]: 3750 nM | inhibition at 10 µM (CTPS1 [5]): 55 to 83% | reduction of viral RNA abundance (Nsp1, N, E) (SARS-CoV-2 [6]; Caco-2, 2 µM): > 50% | reduction of viral RNA abundance (Nsp1, N, E) (SARS-CoV-2 [6]; Caco-2, 6 µM): ~ 75% | CC50 value relative to IC50 value (SARS-CoV-2 [7]): IC50 values as high as their CC50 values | IFN induction, luciferase reporter (IFN-β promoter; CTPS1-depleted 293T cells): failed to do so | IFN induction, luciferase reporter (IFN-β promoter; control 293T cells): elevated IFN induction | NF-κB activation, luciferase reporter (NF-κB): no effect | expression of antiviral genes (IFNB1, ISG56, CCL5, Mx1) (IFNB1, ISG56, CCL5, Mx1): elevated | IFNB1 expression (IFNB1; 293T cells infected with Sendai virus): increased IFNB1 expression in a dose-dependent manner | expression of IFNB1 and ISG56 inhibited by Nsp8 and ORF8 (IFNB1; 293T cells transfected with Nsp8 or ORF8, SeV infection, 6 h): significantly restored | intracellular concentration of [amide-15N]CTP and [amide-15N]CDP (CTP synthesis; Caco-2 cells infected with SARS-CoV-2): potently diminished | [amide-15N]CTP and [amide-15N]CDP (CTP synthesis; Caco-2 cells stably expressing ORF8): diminished

C#CCOc1cccc(NC(=O)c2cccc(NC(=O)CCl)c2)c1 [Compound 2]
covalent labeling of CTPS1 (CTPS1 [8]): covalently labeled CTPS1 in a dose-dependent manner

COc1ccccc1NC(=O)c1cccc(NC(=O)CCl)c1 [Compound 6]
antiviral activity in SARS-CoV-2 infection compared with compound 1 (SARS-CoV-2 [1]): more robust antiviral activity | IC50 (SARS-CoV-2 [1]): 140 nM | CC50 (Caco-2 cells): 2820 nM | CC50 value relative to IC50 value (SARS-CoV-2 [7]): IC50 values as high as their CC50 values | IFN induction compared with compound 1, reporter assay (IFN-β promoter): better effect on IFN induction than compound 1

CCCCCNC(=O)c1cccc(NC(=O)CCl)c1 [Compound 10]
antiviral activity in SARS-CoV-2 infection compared with compound 1 (SARS-CoV-2 [1]): more robust antiviral activity | IC50 (SARS-CoV-2 [1]): 110 nM | CC50 (Caco-2 cells): 6170 nM | CC50 value relative to IC50 value (SARS-CoV-2 [7]): 10 fold | lung pathology, H&E staining (inflammatory infiltration) (SARS-CoV-2 [9]): weak and isolated infiltration of immune cells | viral N protein in the lung, immunofluorescence staining (SARS-CoV-2 [9]): lower expression of viral protein | immune gene expression in the lung (SARS-CoV-2 [9]; vs vehicle): elevated | viral RNA abundance in the lung (SARS-CoV-2 [9]; vs vehicle): reduced | viral titer in the lung (SARS-CoV-2 [9]; vs vehicle, plaque assay): reduced | IFN induction compared with compound 1, reporter assay (IFN-β promoter): better effect on IFN induction than compound 1 | viral titer in the lung (SARS-CoV-2 [10]; plaque assay): decreased | expression of cellular antiviral genes (Ifnb1, Isg15, Isg56, Mx1) in the lung (SARS-CoV-2 [10]; real-time PCR): elevated
